Experimental data taken from publication PMC6263113 (Journal of Enzyme Inhibition and Medicinal Chemistry, 2018).
Entries after “also recorded” stand apart in the source; their conditions may differ.

Assays:
[1] = target: T1, AChE (Rattus norvegicus, UniProt P37136); test: In vitro AChE activity in rat hippocampus homogenate; type: biochemical
T1 sequence (P37136 32-614): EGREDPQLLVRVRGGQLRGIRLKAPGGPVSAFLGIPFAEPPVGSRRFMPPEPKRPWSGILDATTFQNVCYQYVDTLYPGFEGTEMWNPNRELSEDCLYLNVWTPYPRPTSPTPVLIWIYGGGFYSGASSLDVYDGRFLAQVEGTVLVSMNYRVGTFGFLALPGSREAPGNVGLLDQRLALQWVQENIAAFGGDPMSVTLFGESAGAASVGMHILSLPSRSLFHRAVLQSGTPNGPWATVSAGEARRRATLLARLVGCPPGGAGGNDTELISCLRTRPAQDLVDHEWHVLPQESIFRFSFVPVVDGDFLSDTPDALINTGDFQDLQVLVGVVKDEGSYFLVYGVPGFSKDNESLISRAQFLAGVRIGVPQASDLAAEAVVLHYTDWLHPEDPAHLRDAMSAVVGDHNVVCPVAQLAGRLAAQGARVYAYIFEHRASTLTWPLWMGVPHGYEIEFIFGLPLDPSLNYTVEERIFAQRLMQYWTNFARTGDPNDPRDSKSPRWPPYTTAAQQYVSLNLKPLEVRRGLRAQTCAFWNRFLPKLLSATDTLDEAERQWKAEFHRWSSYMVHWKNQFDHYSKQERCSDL

[2] = target: T1, AChE; test: In vitro AChE activity in rat cerebral cortex homogenate; type: biochemical; settings: read-out: inhibition of AChE activity
[3] = tested on: MRC-5 (human fibroblast); test: Cytotoxicity in fibroblast culture by SRB test; type: cell-based; settings: 24 h
[4] = read-out: inhibition of AChE activity

Q: Which results are given for `O=C1c2ccccc2SC(c2ccc([N+](=O)[O-])cc2)N1CCN1CCOCC1` (stereo not drawn) [5Ad, 3-(2-morpholinoethyl)-2-(4-nitrophenyl)-2,3-dihydro-4H-benzo[e][1,3]thiazin-4-one]?
A: IC50 [1]: 70.6 µM; inhibition at 100 µM [1, 4]: 46.4%

Q: How did the inhibition at 10 µM [2] turn out when `CCCCC1Sc2ccccc2C(=O)N1CCCN1CCCCC1` (stereo not drawn) [5Ba, 2-butyl-3-(3-(piperidin-1-yl)propyl)-2,3-dihydro-4H-benzo[e][1,3]thiazin-4-one] was run?
A: 27.1%

Q: What about the IC50 [1] of the same compound?
A: 73.3 µM

Q: What about the inhibition at 100 µM [1, 4] of the same compound?
A: 46.2%

Q: And the “cytotoxicity (cell proliferation vs DMSO control)” value ([3]; 100 µM)?
A: noncytotoxic

Q: Which results are given for `O=C1c2ccccc2SC(c2ccccc2)N1CCCN1CCCCC1` (stereo not drawn) [5Bb, 2-phenyl-3-(3-(piperidin-1-yl)propyl)-2,3-dihydro-4H-benzo[e][1,3]thiazin-4-one]?
A: inhibition at 10 µM [2]: 47.2%; IC50 [1]: 39.8 µM; inhibition at 50 µM [1, 4]: 50%

Q: With `O=C1c2ccccc2SC(c2ccc([N+](=O)[O-])cc2)N1CCCN1CCCCC1` (stereo not drawn) [5Bd, 2-(4-nitrophenyl)-3-(3-(piperidin-1-yl)propyl)-2,3-dihydro-4H-benzo[e] [1,3]thiazin-4-one] as the compound, how does the IC50 [1] read?
A: 39.8 µM

Q: And the “cytotoxicity (cell proliferation vs DMSO control)” value ([3]; 100 µM)?
A: no cytotoxicity; also recorded: noncytotoxic

Q: And the “cytotoxicity in human fibroblast cell (overall statement)” value [3]?
A: low cytotoxicity

Q: With `O=C1c2ccccc2SC(c2ccc(F)cc2)N1CCCN1CCCCC1` (stereo not drawn) [5Bf, 2-(4-fluorophenyl)-3-(3-(piperidin-1-yl)propyl)-2,3-dihydro-4H-benzo[e][1,3]thiazin-4-one] as the compound, how does the IC50 [1] read?
A: 61.7 µM

Q: Which results are given for `O=C1c2ccccc2SC(c2ccc([N+](=O)[O-])cc2)N1CCN1CCCCC1` (stereo not drawn) [5Cd, 2-(4-nitrophenyl)-3-(2-(piperidin-1-yl)ethyl)-2,3-dihydro-4H-benzo[e] [1,3]thiazin-4-one]?
A: IC50 [1]: 119 µM; cytotoxicity (cell proliferation vs DMSO control) ([3]; 50 µM (lowest concentration tested)): showed toxicity
